Data on 8 compounds can be found in patent US20110079773A1, “Selectively Functionalized Rylene Imides and Diimides” (priority 2009, published 2011).

The nature of data set [1]: Steady-state electronic absorption and fluorescence spectroscopy. Format: physicochemical. Conditions: for E(S1): determined from the average energy of the absorption and emission maxima; for λmax: UV-vis absorption in toluene; for ε: extinction coefficient at λmax; for ε / λem: toluene; for λem: fluorescence emission maximum; for φF: fluorescence quantum yield. The method, then: Steady-state electronic absorption spectra were recorded on a Shimadzu 1601 UV/Vis spectrometer with a 2 mm quartz cuvette. Fluorescence measurements were performed using a PTI Quanta-Master 1 single photon counting spectrofluorimeter in a right angle configuration with a 1 cm quartz cuvette.
The intensity of the S0→>S1 transition increases with the size of the aromatic core, while the energy decreases. The fluorescence spectrum of each chromophore is shown in FIG. 4b and summarized in Table 4 along with that of compounds 1, 3, 5, 7, and 9. A similar trend with the emission maxima moving to longer wavelengths as the size of the aromatic core increases was observed. The electronic absorption and fluorescence properties of all the alkylated chromophores are very similar to those of the parent compounds. No observable trend is apparent for the slight shifts in λmax; however, with the exception of 2, all alkylated compounds have slightly lower extinction coefficients than their parent compounds. The fluorescence emission maxima of the alkylated compounds (Table 4) are similar to those of the parent compounds as reported in the literature. See Hydlovic et al., Phtochem. Photobiol. A., 112: 197-203 (1998); Licchelli et al., Chem. Eur. J., 8: 5161-5169 (2002); Weil et al., Chem. Eur. J., 8: 4742-4750 (2002); and Sadrai et al., J. Phys. Chem., 96: 7988-7996 (1992).

For data set [2] the following is noted: cited from earlier work; for ε: extinction coefficient at λmax; for ε / λem: literature values (footnotes a, b); for λem: fluorescence emission maximum; for φF: fluorescence quantum yield, literature values (footnotes d-h); for λmax: literature values (footnotes a Gosztola et al., b Holtrup et al.).
The conditions of data set [3]: literature values (footnote a Hayes et al.); cited from earlier work.
For data set [4] the following is noted: literature values (footnotes a Gosztola et al., c Lee et al.), cited from earlier work; for E^−1/2: first reduction potential; for E^2−1/2: second reduction potential.
Data set [5] is described as follows: Electrochemistry (redox potentials). In kind it is physicochemical. The following applies: for E^−1/2: first reduction potential; for E^−1/2 / E^2−1/2 / E^+1/2: dichloromethane, 0.1 M TBAPF6; for E^−1/2 / E^+1/2: Fc/Fc+ (0.46 V vs. SCE) internal standard; for E^2−1/2: second reduction potential; for Reduction potential more negative than that of parent compound: shift versus unsubstituted parent; for E^+1/2: oxidation potential. On the procedure:
Electrochemical measurements were performed using a CH Instruments Model 622 electrochemical workstation. Measurements for compounds 4, 6, 8, and 10 were performed in dichloromethane containing 0.1 M tetrabutylammonium hexafluorophosphate (TBAPF6) electrolyte. Measurements for 2 were performed in benzonitrile with the same electrolyte. A 1.0 mm diameter platinum disk electrode, platinum wire electrode, and […] reference electrode were employed. The ferrocene/ferrocenium redox couple (Fc/Fc^+, 0.46 V vs. SCE) (see Connelly et al., Chem. Rev., 96: 877-910 (1996)) was used as an internal standard. TBAPF6 was recrystallized twice from ethyl acetate prior to use.
Alkylation (e.g., substitution of the phenethyl groups) ortho to the imide nitrogen atoms appears to render the present compounds somewhat more difficult to reduce, but easier to oxidize (Table 3). The reduction potentials of the disubstituted compounds (2, 4, and 6) are approximately 130 mV more negative than those of their parent compounds. Correspondingly, the oxidation potential of the disubstituted 6 is 40 mV less positive than that of […]. Tetrasubstituted 8 and 10 have reduction potentials that are more negative by ˜200 mV than their unsubstituted analogs. These shifts in redox potentials reasonably arise from the electron-donating nature of the alkylating (e.g., phenethyl) groups. The oxidation and reduction potentials of all alkylated molecules shift in the same direction by nearly the same amount, such that the corresponding HOMO-LUMO energy gap remains the same, as is reflected in their electronic absorption and emission spectra described below.

The next data set is described as follows: Solubility in toluene. Format: physicochemical. Conditions: for solubility: organic solvent or mixture. The method, then:
As used herein, a compound can be considered soluble in a solvent when at least 0.1 mg of the compound can be dissolved in 1 mL of the solvent. Examples of common organic solvents include petroleum ethers; acetonitrile; aromatic hydrocarbons such as benzene, toluene, xylene, and mesitylene; ketones such as acetone, and methyl ethyl ketone; ethers such as tetrahydrofuran, dioxane, bis(2-methoxyethyl)ether, diethyl ether, di-isopropyl ether, and t-butyl methyl ether; alcohols such as methanol, ethanol, butanol, and isopropyl alcohol; aliphatic hydrocarbons such as hexanes; esters such as methyl acetate, ethyl acetate, methyl formate, ethyl formate, isopropyl acetate, and butyl acetate; amides such as dimethylformamide and dimethylacetamide; sulfoxides such as dimethylsulfoxide; halogenated aliphatic and aromatic hydrocarbons such as dichloromethane, chloroform, ethylene chloride, chlorobenzene, dichlorobenzene, and trichlorobenzene; and cyclic solvents such as cyclopentanone, cyclohexanone, and 2-methypyrrolidone. In various embodiments, the present compounds can have good solubility in solvents that are aromatic hydrocarbons such as benzene, toluene, xylene, and mesitylene.
Table 2 below compares the solubilities of several compounds according to the present teachings with their unsubstituted counterparts in toluene.

Converted amounts (≈) assume the structure as drawn. Like-named read-outs stand apart in the source and are kept apart here.

Consider `CCCCCCCCN1C(=O)c2cccc3cccc(c23)C1=O` [Compound 1, N-(n-octyl)-naphthalene-1,8-dicarboximide], for which, in data set [1], the “E(S1)” value was 3.38 eV. Also, in data set [2], the ε is 10647 M⁻¹ cm⁻¹, the λem is on record as 386^a nm, the φF is 0.25^d and the λmax was 350 nm. Further, the τD in data set [3] is recorded as <50^a ps. Besides, the “E^−1/2” value in data set [4] was −1.40^a.
For `CCCCCCCCN1C(=O)c2ccc3c4c(ccc(c24)C1=O)C(=O)N(CCCCCCCC)C3=O` [Compound 3, N,N′-bis(n-octyl)-naphthalene-1,8:4,5-bis(dicarboximide)], in data set [1], the “E(S1)” value was 3.15 eV. Moreover, in data set [2], the ε was 14500 M⁻¹ cm⁻¹, the λem is 407^a nm, the φF is recorded as 0.0018^e and the λmax is given as 382 nm. Moreover, the τD in data set [3] is <20^a ps. Also, in data set [4], the “E^−1/2” value is given as −0.48^a and the “E^2−1/2” value is reported as −0.99^a.
In the case of `CCCCCCCCN1C(=O)c2cc(CCc3ccccc3)c3c4c(c(CCc5ccccc5)cc(c24)C1=O)C(=O)N(CCCCCCCC)C3=O` [Compound 4, N,N′-bis(n-octyl)-2,7-bis(phenethyl)naphthalene-1,8:4,5-bis(dicarboximide)], in data set [1], the λmax was 390 nm, the “E(S1)” value is listed as 3.09 eV, the ε is 14000 M⁻¹ cm⁻¹ and the λem is recorded as 415^ nm. Further, the φF in data set [1] is reported as 0.0005. In data set [5], the “E^−1/2” value is given as −0.61^, the “E^2−1/2” value is reported as −1.15^ and the “Reduction potential more negative than that of parent compound” value was “approximately 130 mV”.
As to `CCCCC(CC)CN1C(=O)c2ccc3c4cccc5cccc(c6ccc(c2c36)C1=O)c54` (stereo not drawn) [Compound 5, N-(2′-ethylhexyl)-perylene-3,4-dicarboximide], the “E(S1)” value in data set [1] worked out at 2.38 eV. In data set [2], the ε is 29970 M⁻¹ cm⁻¹, the λem was 539^a nm, the φF is 0.98^f and the λmax is given as 505 nm. Moreover, the solubility in the data set “Solubility in toluene” stood at 2000 µg/mL (≈ 4610 µM). For the same compound, in data set [3], the τD is on record as 3500 ± 100^a ps. Further, in data set [4], the “E^−1/2” value is listed as −1.00^c and the “E^2−1/2” value is given as −1.49^c. The E^+1/2 in data set [5] was 1.41 V.
With `CCCCCCCCN1C(=O)c2c(CCc3ccccc3)cc3c4cc(CCc5ccccc5)c5c6c(c(CCc7ccccc7)cc(c7cc(CCc8ccccc8)c(c2c37)C1=O)c64)C(=O)N(CCCCCCCC)C5=O` [Compound 8, N,N′-bis(n-octyl)-2,5,8,11-tetrakis(phenethyl)perylene-3, 4:9,10-bis(dicarboximide)], in data set [1], the λmax came out at 525 nm, the “E(S1)” value came to 2.35 eV, the ε turned out to be 58000 M⁻¹ cm⁻¹ and the λem was 533^ nm. For the same compound, in data set [1], the φF is 0.99. For the same compound, in the data set “Solubility in toluene”, the solubility is 2000 µg/mL (≈ 1940 µM). Also, in data set [5], the “E^−1/2” value is reported as −0.75^, the E^+1/2 was determined as 1.63 V, the “E^2−1/2” value was −0.93^ and the “Reduction potential more negative than that of parent compound” value is about 200 mV.
For `CCCCC(CC)CN1C(=O)c2c(CCc3ccccc3)cc3c4ccc5c6cc(CCc7ccccc7)c7c8c(c(CCc9ccccc9)cc(c9ccc(c%10cc(CCc%11ccccc%11)c(c2c3%10)C1=O)c4c59)c86)C(=O)N(CC(CC)CCCC)C7=O` (stereo not drawn) [Compound 10, N,N′-bis(2-ethylhexyl)-2,5,10,13-tetrakis(phenethyl)terrylene-3, 4:11,12-bis(dicarboximide)], in data set [1], the λmax amounted to 649 nm, the “E(S1)” value is reported as 1.90 eV, the ε is 80000 M⁻¹ cm⁻¹ and the λem is recorded as 661^ nm. The compound further yielded a φF in data set [1] of 0.95. Also, the solubility in the data set “Solubility in toluene” worked out at 3000 µg/mL (≈ 2600 µM). In data set [5], the “E^−1/2” value is listed as −0.83^, the E^+1/2 amounted to 1.1 V and the “Reduction potential more negative than that of parent compound” value was about 200 mV.
On to “N,N′-bis(2-ethylhexyl)-terrylene-3,4:11,12-bis(dicarboximide) [Compound 9]”, for which, in data set [1], the “E(S1)” value was 1.88 eV. In data set [2], the ε was 93000 M⁻¹ cm⁻¹, the λem is given as 673^b nm, the φF is 0.95^h and the λmax is recorded as 650 nm. Moreover, in the data set “Solubility in toluene”, the Solubility in toluene was under 1000 µg/mL. For the same compound, in data set [4], the “E^−1/2” value is listed as −0.63^c. Besides, in data set [5], the E^+1/2 came out at 1.12 V.
For the compound “N,N′-bis(n-octyl)-perylene-3, 4:9,10-bis(dicarboximide) [Compound 7]”, in data set [1], the “E(S1)” value stood at 2.34 eV. In data set [2], the ε is 80000 M⁻¹ cm⁻¹, the λem was 535^a nm, the φF was 0.99^g and the λmax is on record as 526 nm. For the same compound, in the data set “Solubility in toluene” (toluene), the Solubility in toluene was under 1000 µg/mL. For the same compound, in data set [4], the “E^−1/2” value is −0.50^c and the “E^2−1/2” value was −0.73^c. This compound returned an E^+1/2 in data set [5] of 1.67 V.

For orientation: solubility means how much of the substance goes into solution per volume.
